PubChem BioAssay (NCI)
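Grown in 96-well plates, cells were treated for 48 hours with each compound at five concentrations. Insufficient inhibition: endpoint recorded as highest concentration tested. At the GI50, growth is halved. TGI denotes the concentration required for complete inhibition of growth.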

Legend:
Assay in all cases: DTP human tumour cell line panel, 48 h
RXF 393 renal = tested on: RXF 393 renal
SN12C renal = tested on: SN12C renal
CCRF-CEM leukemia = tested on: CCRF-CEM leukemia
SF-295 CNS = tested on: SF-295 CNS
COLO 205 colon = tested on: COLO 205 colon
SK-MEL-2 melanoma = tested on: SK-MEL-2 melanoma
MCF7 breast = tested on: MCF7 breast
HL-60(TB) leukemia = tested on: HL-60(TB) leukemia
HCT-15 colon = tested on: HCT-15 colon
SK-OV-3 ovarian = tested on: SK-OV-3 ovarian
HT29 colon = tested on: HT29 colon
OVCAR-8 ovarian = tested on: OVCAR-8 ovarian
HS 578T breast = tested on: HS 578T breast
A549 NSCLC = tested on: A549 NSCLC
SW-620 colon = tested on: SW-620 colon
UACC-62 melanoma = tested on: UACC-62 melanoma
M14 melanoma = tested on: M14 melanoma
MALME-3M melanoma = tested on: MALME-3M melanoma
HCT-116 colon = tested on: HCT-116 colon
U251 CNS = tested on: U251 CNS
CAKI-1 renal = tested on: CAKI-1 renal
NCI-H226 lung = tested on: NCI-H226 lung
NCI-H522 lung = tested on: NCI-H522 lung
MDA-MB-435 = tested on: MDA-MB-435
UO-31 renal = tested on: UO-31 renal
SNB-19 CNS = tested on: SNB-19 CNS
SK-MEL-28 melanoma = tested on: SK-MEL-28 melanoma
MOLT-4 leukemia = tested on: MOLT-4 leukemia
NCI-H460 lung = tested on: NCI-H460 lung
EKVX NSCLC = tested on: EKVX NSCLC
SK-MEL-5 melanoma = tested on: SK-MEL-5 melanoma
TK-10 renal = tested on: TK-10 renal
MDA-MB-231 breast = tested on: MDA-MB-231 breast
BT-549 breast = tested on: BT-549 breast
RPMI-8226 leukemia = tested on: RPMI-8226 leukemia
786-0 renal = tested on: 786-0 renal
ACHN renal = tested on: ACHN renal
SF-539 CNS = tested on: SF-539 CNS
HOP-62 NSCLC = tested on: HOP-62 NSCLC
IGROV1 ovarian = tested on: IGROV1 ovarian
K-562 leukemia = tested on: K-562 leukemia
OVCAR-5 ovarian = tested on: OVCAR-5 ovarian
NCI-H23 lung = tested on: NCI-H23 lung
SF-268 CNS = tested on: SF-268 CNS
OVCAR-3 ovarian = tested on: OVCAR-3 ovarian
OVCAR-4 ovarian = tested on: OVCAR-4 ovarian
T-47D breast = tested on: T-47D breast
SNB-75 CNS = tested on: SNB-75 CNS
NCI/ADR-RES ovarian = tested on: NCI/ADR-RES ovarian
PC-3 prostate = tested on: PC-3 prostate
LOX IMVI melanoma = tested on: LOX IMVI melanoma
SR leukemia = tested on: SR leukemia
KM12 colon = tested on: KM12 colon
HOP-92 NSCLC = tested on: HOP-92 NSCLC
DU-145 prostate = tested on: DU-145 prostate
UACC-257 melanoma = tested on: UACC-257 melanoma
HCC-2998 colon = tested on: HCC-2998 colon
A498 renal = tested on: A498 renal

## CC1=C2C(=O)[C@](C)(CO)C=C2C(=O)[C@](C)(O)C12CC2
RXF 393 renal
  GI50: 1.88 µM
  TGI: 3.52 µM
SN12C renal
  GI50: 2.19 µM
  TGI: 5.62 µM
CCRF-CEM leukemia
  GI50: 3.08 µM
  TGI: 13.8 µM
SF-295 CNS
  GI50: 2.22 µM
  TGI: 5.2 µM
COLO 205 colon
  GI50: 2.47 µM
  TGI: 6.4 µM
SK-MEL-2 melanoma
  GI50: 2.39 µM
  TGI: 5.2 µM
MCF7 breast
  GI50: 1.47 µM
  TGI: 3.16 µM
HL-60(TB) leukemia
  GI50: 2.46 µM
  TGI: 6.21 µM
HCT-15 colon
  GI50: 2.08 µM
  TGI: 4.92 µM
SK-OV-3 ovarian
  GI50: 3.36 µM
  TGI: 10.9 µM
HT29 colon
  GI50: 3.25 µM
  TGI: 11.8 µM
OVCAR-8 ovarian
  GI50: 2.62 µM
  TGI: 8.31 µM
HS 578T breast
  GI50: 2.01 µM
  TGI: 5 µM
A549 NSCLC
  GI50: 2.91 µM
  TGI: 9.46 µM
SW-620 colon
  GI50: 1.86 µM
  TGI: 3.96 µM
UACC-62 melanoma
  GI50: 1.88 µM
  TGI: 3.89 µM
M14 melanoma
  GI50: 1.8 µM
  TGI: 3.56 µM
MALME-3M melanoma
  GI50: 1.86 µM
  TGI: 3.52 µM
HCT-116 colon
  GI50: 1.82 µM
  TGI: 3.84 µM
U251 CNS
  GI50: 2.52 µM
  TGI: 7.48 µM
CAKI-1 renal
  GI50: 1.63 µM
  TGI: 3.07 µM
NCI-H226 lung
  GI50: 2.18 µM
  TGI: 5.71 µM
NCI-H522 lung
  GI50: 2.04 µM
  TGI: 4.31 µM
MDA-MB-435
  GI50: 1.84 µM
  TGI: 3.41 µM
UO-31 renal
  GI50: 1.66 µM
  TGI: 3.17 µM
SNB-19 CNS
  GI50: 3.05 µM
  TGI: 10.5 µM
SK-MEL-28 melanoma
  GI50: 2.06 µM
  TGI: 4.19 µM
MOLT-4 leukemia
  GI50: 3.23 µM
  TGI: 13.1 µM
NCI-H460 lung
  GI50: 2.49 µM
  TGI: 7.21 µM
EKVX NSCLC
  GI50: 3.05 µM
  TGI: 10.2 µM
SK-MEL-5 melanoma
  GI50: 1.81 µM
  TGI: 3.29 µM
TK-10 renal
  GI50: 2.23 µM
  TGI: 5.63 µM
MDA-MB-231 breast
  GI50: 1.98 µM
  TGI: 3.99 µM
BT-549 breast
  GI50: 1.75 µM
  TGI: 3.6 µM
RPMI-8226 leukemia
  GI50: 2.28 µM
  TGI: 5.63 µM
786-0 renal
  GI50: 2.1 µM
  TGI: 4.92 µM
ACHN renal
  GI50: 1.86 µM
  TGI: 3.56 µM
SF-539 CNS
  GI50: 1.82 µM
  TGI: 3.54 µM
HOP-62 NSCLC
  GI50: 3.2 µM
  TGI: 11.6 µM
IGROV1 ovarian
  GI50: 2.4 µM
  TGI: 6.47 µM
K-562 leukemia
  GI50: 3.47 µM
  TGI: > 100 µM
OVCAR-5 ovarian
  GI50: 2.53 µM
  TGI: 6.67 µM
NCI-H23 lung
  GI50: 1.84 µM
  TGI: 3.57 µM
SF-268 CNS
  GI50: 2.49 µM
  TGI: 7.05 µM
OVCAR-3 ovarian
  GI50: 1.8 µM
  TGI: 3.26 µM
OVCAR-4 ovarian
  GI50: 1.91 µM
  TGI: 3.36 µM
T-47D breast
  GI50: 2.33 µM
  TGI: 6.42 µM
SNB-75 CNS
  GI50: 1.26 µM
  TGI: 3.94 µM
NCI/ADR-RES ovarian
  GI50: 1.89 µM
  TGI: 4.02 µM
PC-3 prostate
  GI50: 2.83 µM
  TGI: 9.03 µM
LOX IMVI melanoma
  GI50: 1.72 µM
  TGI: 3.3 µM
SR leukemia
  GI50: 2.52 µM
  TGI: 17.7 µM
KM12 colon
  GI50: 2.23 µM
  TGI: 5 µM
HOP-92 NSCLC
  GI50: 2.12 µM
  TGI: 4.45 µM
DU-145 prostate
  GI50: 2.2 µM
  TGI: 4.89 µM
UACC-257 melanoma
  GI50: 2.59 µM
  TGI: 7.35 µM
HCC-2998 colon
  GI50: 1.72 µM
  TGI: 3.33 µM

## CNC(=O)c1cc(-n2ccc3cc(NC(=O)Nc4ccc(N5CCOCC5)c(C(F)(F)F)c4)ccc32)ccn1
RXF 393 renal
  GI50: 0.595 µM
  TGI: 1.62 µM
SN12C renal
  GI50: 9.21 µM
  TGI: > 33.3 µM
CCRF-CEM leukemia
  GI50: 1.53 µM
  TGI: > 33.3 µM
SF-295 CNS
  GI50: 0.938 µM
  TGI: 3.24 µM
COLO 205 colon
  GI50: 2.09 µM
  TGI: > 33.3 µM
A498 renal
  GI50: > 33.3 µM
  TGI: > 33.3 µM
SK-MEL-2 melanoma
  GI50: 11.3 µM
  TGI: > 33.3 µM
MCF7 breast
  GI50: 1.7 µM
  TGI: > 33.3 µM
HL-60(TB) leukemia
  GI50: 1.62 µM
  TGI: > 33.3 µM
HCT-15 colon
  GI50: 1.93 µM
  TGI: > 33.3 µM
SK-OV-3 ovarian
  GI50: 26.7 µM
  TGI: > 33.3 µM
HT29 colon
  GI50: 2.01 µM
  TGI: > 33.3 µM
OVCAR-8 ovarian
  GI50: 4.5 µM
  TGI: > 33.3 µM
HS 578T breast
  GI50: 1.85 µM
  TGI: > 33.3 µM
A549 NSCLC
  GI50: 5.15 µM
  TGI: > 33.3 µM
SW-620 colon
  GI50: 8.36 µM
  TGI: > 33.3 µM
UACC-62 melanoma
  GI50: 1.27 µM
  TGI: 14.7 µM
M14 melanoma
  GI50: 3.11 µM
  TGI: > 33.3 µM
MALME-3M melanoma
  GI50: 3.89 µM
  TGI: > 33.3 µM
HCT-116 colon
  GI50: 2.09 µM
  TGI: > 33.3 µM
U251 CNS
  GI50: 3.23 µM
  TGI: > 33.3 µM
CAKI-1 renal
  GI50: 10 µM
  TGI: > 33.3 µM
NCI-H226 lung
  GI50: 3.69 µM
  TGI: > 33.3 µM
NCI-H522 lung
  GI50: 2.9 µM
  TGI: > 33.3 µM
MDA-MB-435
  GI50: 5.73 µM
  TGI: > 33.3 µM
UO-31 renal
  GI50: 3.55 µM
  TGI: > 33.3 µM
SNB-19 CNS
  GI50: 15 µM
  TGI: > 33.3 µM
SK-MEL-28 melanoma
  GI50: 11.7 µM
  TGI: > 33.3 µM
MOLT-4 leukemia
  GI50: 1.93 µM
  TGI: > 33.3 µM
NCI-H460 lung
  GI50: 4.39 µM
  TGI: > 33.3 µM
EKVX NSCLC
  GI50: > 33.3 µM
  TGI: > 33.3 µM
SK-MEL-5 melanoma
  GI50: 1.32 µM
  TGI: 7.58 µM
TK-10 renal
  GI50: 27.6 µM
  TGI: > 33.3 µM
MDA-MB-231 breast
  GI50: 17.9 µM
  TGI: > 33.3 µM
BT-549 breast
  GI50: 1.27 µM
  TGI: 8.9 µM
RPMI-8226 leukemia
  GI50: 1.04 µM
  TGI: 3.11 µM
786-0 renal
  GI50: 2.89 µM
  TGI: > 33.3 µM
ACHN renal
  GI50: 5.69 µM
  TGI: > 33.3 µM
SF-539 CNS
  GI50: 1.41 µM
  TGI: > 33.3 µM
HOP-62 NSCLC
  GI50: 1.52 µM
  TGI: 14.6 µM
IGROV1 ovarian
  GI50: 3.87 µM
  TGI: > 33.3 µM
K-562 leukemia
  GI50: 1.24 µM
  TGI: > 33.3 µM
OVCAR-5 ovarian
  GI50: 14.6 µM
  TGI: > 33.3 µM
SF-268 CNS
  GI50: 27.2 µM
  TGI: > 33.3 µM
OVCAR-3 ovarian
  GI50: 6.48 µM
  TGI: > 33.3 µM
OVCAR-4 ovarian
  GI50: 7.76 µM
  TGI: > 33.3 µM
T-47D breast
  GI50: 0.907 µM
  TGI: 15.5 µM
SNB-75 CNS
  GI50: 6.38 µM
  TGI: > 33.3 µM
NCI/ADR-RES ovarian
  GI50: 7.51 µM
  TGI: > 33.3 µM
PC-3 prostate
  GI50: 1.31 µM
  TGI: > 33.3 µM
LOX IMVI melanoma
  GI50: 0.251 µM
  TGI: > 33.3 µM
SR leukemia
  GI50: 1.88 µM
  TGI: > 33.3 µM
KM12 colon
  GI50: 0.159 µM
  TGI: > 33.3 µM
HOP-92 NSCLC
  GI50: 2.11 µM
  TGI: > 33.3 µM
DU-145 prostate
  GI50: 10.4 µM
  TGI: > 33.3 µM
UACC-257 melanoma
  GI50: 8.89 µM
  TGI: > 33.3 µM
HCC-2998 colon
  GI50: 11.5 µM
  TGI: > 33.3 µM
